pIC50: −log10 of the molar value. Read-outs that look alike come from different tables or passages of the source.
Target: DCN1 (DCUND1) protein PONY domain (Homo sapiens (Human), UniProt Q96GG9)
Experiment: TR-FRET assay, DCN1 binding with FAM-labeled probe
Details: for IC50: TR FRET IC50 1 hr (nM)
Method in brief: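 Binding was read as the TR-FRET ratio between a FAM-tagged inhibitor probe and Tb-labeled biotinylated E. coli-expressed DCN1 PONY domain, measured 1, 5 and 24 h after compound addition. The two setups used 5 nM protein/20 nM FAM-probe or 0.31 nM protein/900 nM total probe (100 nM labeled), in TritonX buffer with 200 mM NaCl.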

[1] = 24 hr after treatment with compound, read-out: TR FRET IC50 24 hr
[2] = 1 hr after treatment with compound

Chain of DCN1 (DCUND1) protein PONY domain (Q96GG9 60-248): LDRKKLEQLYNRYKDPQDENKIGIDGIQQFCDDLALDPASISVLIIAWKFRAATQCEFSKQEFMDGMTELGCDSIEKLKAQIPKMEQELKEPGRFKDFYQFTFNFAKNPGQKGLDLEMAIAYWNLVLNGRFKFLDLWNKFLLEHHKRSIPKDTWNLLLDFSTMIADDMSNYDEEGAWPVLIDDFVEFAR

Structure (SMILES) | pIC50 [1] | IC50 [2] | pIC50 (read-out: TR FRET IC50 1 hr, 1 hr after treatment with compound)
C=C(Cc1nn(-c2ccccc2)c2c1[C@H](c1ccc(F)cc1)[C@H](NC(=O)c1cccc(C(F)(F)F)c1)C(=O)N2CC)C(N)=O (racemic) [Compound I-105, rac-N-((4R,5R)-3-(2-carbamoylallyl)-7-ethyl-4-(4-fluorophenyl)-6-oxo-1-phenyl-4,5,6,7-tetrahydro-1H-pyrazolo[3,4-b]pyridin-5-yl)-3-(trifluoromethyl)benzamide] | 6.00 to 6.70 | 200 to 1000 nM | 
CCN1C(=O)[C@@H](NC(=O)c2ccccc2)[C@@H](C2CC2)c2c(C(=O)N3[C@H](C#N)C[C@H]4C[C@H]43)nn(C3CCOCC3)c21 [Compound I-553] | ≥ 6.70 | 200 to 1000 nM | 
CCN1C(=O)[C@@H](NC(=O)c2ccc3c(c2)OCCO3)[C@@H](C2CC2)c2c(C(=O)N3[C@H](C#N)C[C@H]4C[C@H]43)nn(C3CCOCC3)c21 [Compound I-695] | 5.52 to 6.00 | 1000 to 3000 nM | 
CCN1C(=O)[C@@H](NC(=O)c2cccc(C(F)(F)F)c2)[C@@H](c2ccc(F)cc2)c2c(CC/C=C\C(=O)NC)nn(-c3ccccc3)c21 (racemic) [Compound I-43] | 5.52 to 6.00 | 200 to 1000 nM | 
CCN1C(=O)[C@@H](NC(=O)c2cccc(C(F)(F)F)c2)[C@@H](c2ccc(F)cc2)c2c(CC/C=C/C(=O)OC)nn(-c3ccccc3)c21 (racemic) [Compound I-128, rac-methyl (E)-5-((4R,5R)-7-ethyl-4-(4-fluorophenyl)-6-oxo-1-phenyl-5-(3-(trifluoromethyl)benzamido)-4,5,6,7-tetrahydro-1H-pyrazolo[3,4-b]pyridin-3-yl)pent-2-enoate] | 6.00 to 6.70 | 1000 to 3000 nM | 
CCN1C(=O)[C@@H](NC(=O)c2cccc(C(F)(F)F)c2)[C@@H](c2ccc(F)cc2)c2c(C(=O)NC(C)(C)C#N)nn(-c3ccccc3)c21 (racemic) [Compound I-31, rac-(4R,5R)—N-(2-cyanopropan-2-yl)-7-ethyl-4-(4-fluorophenyl)-6-oxo-1-phenyl-5-(3-(trifluoromethyl)benzamido)-4,5,6,7-tetrahydro-1H-pyrazolo[3,4-b]pyridine-3-carboxamide] | 5.52 to 6.00 | 1000 to 3000 nM | 
CCN1C(=O)[C@@H](NC(=O)C2=NN(c3ccccc3)C(=O)C2)[C@@H](C2CC2)c2c(C(=O)N3[C@H](C#N)C[C@H]4C[C@H]43)nn(C3CCOCC3)c21 [Compound I-591] | 5.52 to 6.00 | 1000 to 3000 nM | 
CCN1C(=O)[C@@H](NC(=O)c2cccc(C(F)(F)F)c2)[C@@H](c2ccc(F)cc2)c2c(C/C=C/C(=O)NCCCN(C)C)nn(-c3ccccc3)c21 (racemic) [Compound I-99] | 6.00 to 6.70 | 200 to 1000 nM | 
CCN1C(=O)[C@@H](NC(=O)COc2ccc3c(c2)CCC3)[C@@H](C2CC2)c2c(C(=O)N3[C@H](C#N)C[C@H]4C[C@H]43)nn(C3CCOCC3)c21 [Compound I-554] | 5.52 to 6.00 | 1000 to 3000 nM | 
CCN1C(=O)[C@@H](CC(=O)CC2CC2)[C@@H](C2CC2)c2c(C(=O)N3[C@H](C#N)C[C@H]4C[C@H]43)nn(C3CCOCC3)c21 [Compound I-466] | 5.52 to 6.00 | 1000 to 3000 nM | 
CCN1C(=O)[C@@H](NC(=O)c2cccc(C(F)(F)F)c2)[C@@H](c2ccc(F)cc2)c2c(C(C)(C)NC#N)nn(-c3ccccc3)c21 (racemic) [Compound I-144, rac-N-((4R,5R)-3-(2-cyanamidopropan-2-yl)-7-ethyl-4-(4-fluorophenyl)-6-oxo-1-phenyl-4,5,6,7-tetrahydro-1H-pyrazolo[3,4-b]pyridin-5-yl)-3-(trifluoromethyl)benzamide] | 6.00 to 6.70 | 1000 to 3000 nM | 
CCN1C(=O)[C@@H](NC(=O)c2cc(F)ccc2C(F)(F)F)[C@@H](C2CC2)c2c(C(=O)N3[C@H](C#N)C[C@H]4C[C@H]43)nn(C3CCOCC3)c21 [Compound I-623] | 5.52 to 6.00 | 1000 to 3000 nM | 
C=C(C(=O)OC(C)(C)C)[C@@H](O)c1nn(-c2ccccc2)c2c1[C@H](c1ccc(F)cc1)[C@H](NC(=O)c1cccc(C(F)(F)F)c1)C(=O)N2CC (racemic) [Compound I-146, rac-tert-butyl 2-(((4R,5R)-7-ethyl-4-(4-fluorophenyl)-6-oxo-1-phenyl-5-(3-(trifluoromethyl)benzamido)-4,5,6,7-tetrahydro-1H-pyrazolo[3,4-b]pyridin-3-yl)(hydroxy)methyl)acrylate] | 6.00 to 6.70 | 1000 to 3000 nM | 
CCC(=O)N[C@@H]1C(=O)N(CC)c2c(c(C(=O)N3[C@H](C#N)C[C@H]4C[C@H]43)nn2C2CCOCC2)[C@@H]1C1CC1 [Compound I-696] | 5.52 to 6.00 | 1000 to 3000 nM | 
CCN1C(=O)[C@@H](NC(=O)c2cccc(C(F)(F)F)c2)[C@@H](c2ccc(F)cc2)c2c(CNC(=O)/C=C/C(=O)O)nn(-c3ccccc3)c21 (racemic) [Compound I-59, rac-I-4-((((4R,5R)-7-ethyl-4-(4-fluorophenyl)-6-oxo-1-phenyl-5-(3-(trifluoromethyl)benzamido)-4,5,6,7-tetrahydro-1H-pyrazolo[3,4-b]pyridine-3-yl)methyl)amino)-4-oxobut-2-enoic acid] | 5.52 to 6.00 | 1000 to 3000 nM | 
CCN1C(=O)[C@@H](NC(=O)c2cccc(C(F)(F)F)c2)[C@@H](c2ccc(F)cc2)c2c(CN(C#N)CCF)nn(-c3ccccc3)c21 (racemic) [Compound I-61] | 6.00 to 6.70 | 200 to 1000 nM | 
CCN1C(=O)[C@@H](NC(=O)c2cccc(C(F)(F)F)c2)[C@@H](c2ccc(F)cc2)c2c(C/C=C/C(N)=O)nn(-c3ccccc3)c21 (racemic) [Compound I-46, rac-N-((4R,5R)-3-((E)-4-amino-4-oxobut-2-en-1-yl)-7-ethyl-4-(4-fluorophenyl)-6-oxo-1-phenyl-4,5,6,7-tetrahydro-1H-pyrazolo[3,4-b]pyridin-5-yl)-3-(trifluoromethyl)benzamide] | 5.52 to 6.00 | 1000 to 3000 nM | 
CCN1C(=O)[C@@H](NC(=O)C2CC2C(F)(F)F)[C@@H](C2CC2)c2c(C(=O)N3[C@H](C#N)C[C@H]4C[C@H]43)nn(C3CCOCC3)c21 (stereo partly drawn) [Compound I-523] | 5.52 to 6.00 | 1000 to 3000 nM | 
CCN1C(=O)[C@@H](NC(=O)c2cccc(C(F)(F)F)c2)[C@@H](c2ccc(F)cc2)c2c(CNC(=O)C3(C#N)CCOCC3)nn(-c3ccccc3)c21 (racemic) [Compound I-22, rac-4-cyano-N-(((4R,5R)-7-ethyl-4-(4-fluorophenyl)-6-oxo-1-phenyl-5-(3-(trifluoromethyl)benzamido)-4,5,6,7-tetrahydro-1H-pyrazolo[3,4-b]pyridine-3-yl)methyl)tetrahydro-2H-pyran-4-carboxamide] | 5.52 to 6.00 | 1000 to 3000 nM | 
CCN1C(=O)[C@@H](NC(=O)c2cnc(C(F)(F)F)s2)[C@@H](C2CC2)c2c(C(=O)N3[C@H](C#N)C[C@H]4C[C@H]43)nn(C3CCOCC3)c21 [Compound I-513] | 5.52 to 6.00 | 1000 to 3000 nM | 
CCN1C(=O)[C@@H](NC(=O)c2cccc(C(F)(F)F)c2)[C@@H](c2ccc(F)cc2)c2c(NC(=O)C#CCN3CCOCC3)nn(-c3ccccc3)c21 (racemic) [Compound I-11, rac-N-((4R,5R)-7-ethyl-4-(4-fluorophenyl)-3-(4-morpholinobut-2-ynamido)-6-oxo-1-phenyl-4,5,6,7-tetrahydro-1H-pyrazolo[3,4-b]pyridine-5-yl)-3-(trifluoromethyl)benzamide] | ≥ 6.70 | 200 to 1000 nM | 
CCN1C(=O)[C@@H](NC(=O)CC2CC(=O)c3ccc(OC)cc32)[C@@H](C2CC2)c2c(C(=O)N3[C@H](C#N)C[C@H]4C[C@H]43)nn(C3CCOCC3)c21 (stereo partly drawn) [Compound I-618] | 5.52 to 6.00 | 1000 to 3000 nM | 
C=C(CC(=O)OC)C(=O)NCc1nn(-c2ccccc2)c2c1[C@H](c1ccc(F)cc1)[C@H](NC(=O)c1cccc(C(F)(F)F)c1)C(=O)N2CC (racemic) [Compound I-17] | 5.52 to 6.00 | 1000 to 3000 nM | 
CCN1C(=O)[C@@H](NC(=O)c2c(Cl)cccc2Cl)[C@@H](C2CC2)c2c(C(=O)N3[C@H](C#N)C[C@H]4C[C@H]43)nn(C3CCOCC3)c21 [Compound I-473] | 5.52 to 6.00 | 1000 to 3000 nM | 
CCN1C(=O)[C@@H](NC(=O)c2ccc(F)c(F)c2OC)[C@@H](C2CC2)c2c(C(=O)N3[C@H](C#N)C[C@H]4C[C@H]43)nn(C3CCOCC3)c21 [Compound I-502] | 6.00 to 6.70 | 1000 to 3000 nM | 
CCN1C(=O)[C@@H](NC(=O)c2ccn(C(C)C)n2)[C@@H](C2CC2)c2c(C(=O)N3[C@H](C#N)C[C@H]4C[C@H]43)nn(C3CCOCC3)c21 [Compound I-472] | ≥ 6.70 | 200 to 1000 nM | 
CCN1C(=O)[C@@H](NC(=O)c2ccc(C)c(C(F)(F)F)c2)[C@@H](C2CC2)c2c(C(=O)N3[C@H](C#N)C[C@H]4C[C@H]43)nn(C3CCOCC3)c21 [Compound I-627] | ≥ 6.70 |  | ≥ 6.70
CCN1C(=O)[C@@H](NC(=O)c2sc(NC(C)=O)nc2C)[C@@H](C2CC2)c2c(C(=O)N3[C@H](C#N)C[C@H]4C[C@H]43)nn(C3CCOCC3)c21 [Compound I-471] | 5.52 to 6.00 | 1000 to 3000 nM | 
CCN1C(=O)[C@@H](NC(=O)c2cc(C)n(C(C)(C)C)n2)[C@@H](C2CC2)c2c(C(=O)N3[C@H](C#N)C[C@H]4C[C@H]43)nn(C3CCOCC3)c21 [Compound I-691] | ≥ 6.70 | 1000 to 3000 nM | 
CCN1C(=O)[C@@H](NC(=O)c2cccc(C(F)(F)F)c2)[C@@H](c2ccc(F)cc2)c2c(CNC(=O)[C@@H](C)C#N)nn(-c3ccccc3)c21 (relative stereo) [Compound I-158, N-((4RS,5RS)-3-(((R*)-2-cyanopropanamido)methyl)-7-ethyl-4-(4-fluorophenyl)-6-oxo-1-phenyl-4,5,6,7-tetrahydro-1H-pyrazolo[3,4-b]pyridin-5-yl)-3-(trifluoromethyl)benzamide] | 6.00 to 6.70 | 200 to 1000 nM | 

— patent US20250163057A1, “DCN-1 MODULATING COMPOUNDS AND METHODS OF USE THEREOF” (Cellarity, Inc., priority 2023, published 2025)
